From patent US4698352A, “4-oxo-1,4-dihydronicotinic acid derivatives, salts thereof, and antibacterial agents containing the same” (Toyama Chemical Co., Ltd., priority 1982, dated 1987)
≈ marks a conversion by molar mass, not a printed value. Read-outs that look alike come from different tables or passages of the source.

What was measured:
Assay in all cases: Antibacterial activity (MIC), agar dilution
Type in all cases: cell-based
E. coli NIHJ JC-2 = conditions: Escherichia coli, NIHJJC2, 20 h
From the text: (§1) The amount of bacteria inoculated was 10^4 cells per plate (10^6 cells per ml).

E. coli TK-111 = conditions: Escherichia coli, TK111, 20 h, E. coli TK-111; 10^6 cells per ml; 37° C., 20 hours; read-out: MIC
From the text: as §1

Ent. cloacae IID977 = conditions: Enterobacter cloacae, IID977, 20 h
From the text: as §1

Kl. pneumoniae Y-41 = conditions: Klebsiella pneumoniae, Y41, 10^6 cells per ml, 37° C., 20 hours, read-out: MIC
From the text: as §1

Kl. pneumoniae Y-50 = conditions: Klebsiella pneumoniae, Y50, 20 h, 10^6 cells per ml, 37° C., read-out: MIC
From the text: as §1

Pro. mirabilis T-111 = conditions: Proteus mirabilis, 37° C.
From the text: as §1

Pro. morganii T-216 = conditions: Morganella morganii, 37° C.
From the text: as §1

Pro. vulgaris GN3027 = conditions: Proteus vulgaris, GN3027, 20 h, Pro. vulgaris GN3027; 10^6 cells per ml; 37° C., 20 hours; read-out: MIC
From the text: as §1

Ps. aeruginosa IFO3445 = conditions: Pseudomonas aeruginosa
From the text: as §1

Ps. aeruginosa S-68 = conditions: Pseudomonas aeruginosa
From the text: as §1

St. aureus FDA209P = conditions: Staphylococcus aureus, FDA209P, 20 h, St. aureus FDA209P; 10^6 cells per ml; 37° C., 20 hours; read-out: MIC
From the text: as §1

E. coli TK-3* = conditions: Escherichia coli, 20 h
From the text: as §1
(§2) * Penicillinase-producing bacteria

Kl. pneumoniae Y-4* = conditions: Klebsiella pneumoniae, 20 h, Kl. pneumoniae Y-4, penicillinase-producing; 10^6 cells per ml; read-out: MIC
From the text: as §1, §2

Ps. aeruginosa GN3379* = conditions: Pseudomonas aeruginosa, Ps. aeruginosa GN3379, penicillinase-producing, 10^6 cells per ml
From the text: as §1, §2

St. aureus F-137* = conditions: Staphylococcus aureus, 20 h, St. aureus F-137, penicillinase-producing; 10^6 cells per ml; read-out: MIC
From the text: as §1, §2

E. coli GN5482** = conditions: Escherichia coli, 20 h; E. coli GN5482, cephalospolinase-producing; 10^6 cells per ml; read-out: MIC
From the text: as §1
(§3) ** Cephalospolinase-producing bacteria

Pro. vulgaris GN76** = conditions: Proteus vulgaris, 20 h; Pro. vulgaris GN76, cephalospolinase-producing; 10^6 cells per ml; read-out: MIC
From the text: as §1, §3

Ps. aeruginosa GN918** = conditions: Pseudomonas aeruginosa, 20 h; Ps. aeruginosa GN918, cephalospolinase-producing; 10^6 cells per ml; read-out: MIC
From the text: as §1, §3

Aci. antitratus A-6 = conditions: 20 h, Aci. antitratus A-6; 10^6 cells per ml; 37° C., 20 hours; read-out: MIC
From the text: as §1

[1] = E. coli NIHJ JC-2, 10^6 cells per ml, 37° C., 20 hours, read-out: MIC
[2] = Ent. cloacae IID977, 10^6 cells per ml, 37° C., 20 hours, read-out: MIC
[3] = T111, 10^6 cells per ml, 20 hours, read-out: MIC
[4] = T216, 10^6 cells per ml, 20 hours, read-out: MIC
[5] = Ps. aeruginosa IFO3445, 10^6 cells per ml, 37° C., 20 hours, read-out: MIC
[6] = S68, Ps. aeruginosa S-68, 10^6 cells per ml, 37° C., 20 hours, read-out: MIC
[7] = E. coli TK-3, penicillinase-producing, 10^6 cells per ml, read-out: MIC

| SMILES | MIC (E. coli TK-111) | MIC (Kl. pneumoniae Y-41) | MIC (Kl. pneumoniae Y-50) | MIC (Pro. mirabilis T-111; T111, 20 h, 10^6 cells per ml) | MIC (Pro. vulgaris GN3027) | MIC (Ps. aeruginosa IFO3445; IFO3445, 20 h) | MIC (Ps. aeruginosa S-68; S68, 20 h) | MIC (St. aureus FDA209P) | MIC (Kl. pneumoniae Y-4*) | MIC (Ps. aeruginosa GN3379*; GN3379, 20 h) | MIC (St. aureus F-137*) | MIC (E. coli GN5482**) | MIC (Pro. vulgaris GN76**) | MIC (Ps. aeruginosa GN918**) | MIC (E. coli NIHJ JC-2; [1]) | MIC (Ent. cloacae IID977; [2]) | MIC (Pro. morganii T-216; [4]) | MIC (E. coli TK-3*; [7]) | MIC (Ps. aeruginosa GN3379*; 20 h, read-out: MIC) | MIC (Aci. antitratus A-6) | other results |
| --- | --- | --- | --- | --- | --- | --- | --- | --- | --- | --- | --- | --- | --- | --- | --- | --- | --- | --- | --- | --- | --- |
| O=C(O)c1cn(-c2ccc(F)cc2)c(-c2cc3ccccc3s2)cc1=O | 0.78 µg/mL (≈ 2.13 µM) | 6.25 µg/mL (≈ 17.1 µM) | 3.13 µg/mL (≈ 8.57 µM) | 3.13 µg/mL (≈ 8.57 µM) | 0.39 µg/mL (≈ 1.07 µM) | 12.5 µg/mL (≈ 34.2 µM) | 6.25 µg/mL (≈ 17.1 µM) | 0.78 µg/mL (≈ 2.13 µM) | 12.5 µg/mL (≈ 34.2 µM) | 12.5 µg/mL (≈ 34.2 µM) | 0.39 µg/mL (≈ 1.07 µM) | 0.39 µg/mL (≈ 1.07 µM) | 1.56 µg/mL (≈ 4.27 µM) | 1.56 µg/mL (≈ 4.27 µM) | – | – | – | – | – | – | MIC (E. coli NIHJ JC-2): 3.13 µg/mL (≈ 8.57 µM); MIC (Ent. cloacae IID977): 3.13 µg/mL (≈ 8.57 µM); MIC (Pro. morganii T-216; T216, 20 h, 10^6 cells per ml): 3.13 µg/mL (≈ 8.57 µM); MIC (E. coli TK-3*): 3.13 µg/mL (≈ 8.57 µM) |
| Cc1cc(O)ccc1-n1cc(C(=O)O)c(=O)cc1-c1ccc(-c2cccs2)cc1 | ≤ 0.05 µg/mL | 0.78 µg/mL (≈ 1.93 µM) | 0.39 µg/mL (≈ 0.967 µM) | – | ≤ 0.05 µg/mL | – | – | ≤ 0.05 µg/mL | 0.78 µg/mL (≈ 1.93 µM) | – | ≤ 0.05 µg/mL | ≤ 0.05 µg/mL | 0.2 µg/mL (≈ 0.496 µM) | 0.78 µg/mL (≈ 1.93 µM) | 0.1 µg/mL (≈ 0.248 µM) | 0.39 µg/mL (≈ 0.967 µM) | 0.39 µg/mL (≈ 0.967 µM) | 0.39 µg/mL (≈ 0.967 µM) | 3.13 µg/mL (≈ 7.76 µM) | – | MIC (Pro. mirabilis T-111; [3]): 0.39 µg/mL (≈ 0.967 µM); MIC (Ps. aeruginosa IFO3445; [5]): 6.25 µg/mL (≈ 15.5 µM); MIC (Ps. aeruginosa S-68; [6]): 1.56 µg/mL (≈ 3.87 µM) |
| O=C(O)c1cn(-c2ccc(O)cc2)c(-c2ccc3ccsc3c2)cc1=O | ≤ 0.05 µg/mL | 0.78 µg/mL (≈ 2.15 µM) | 0.39 µg/mL (≈ 1.07 µM) | 1.56 µg/mL (≈ 4.29 µM) | ≤ 0.05 µg/mL | 1.56 µg/mL (≈ 4.29 µM) | 1.56 µg/mL (≈ 4.29 µM) | 0.1 µg/mL (≈ 0.275 µM) | 1.56 µg/mL (≈ 4.29 µM) | – | 0.1 µg/mL (≈ 0.275 µM) | ≤ 0.05 µg/mL | 0.39 µg/mL (≈ 1.07 µM) | 0.78 µg/mL (≈ 2.15 µM) | 0.2 µg/mL (≈ 0.55 µM) | 0.39 µg/mL (≈ 1.07 µM) | 0.39 µg/mL (≈ 1.07 µM) | 0.39 µg/mL (≈ 1.07 µM) | 3.13 µg/mL (≈ 8.61 µM) | – | – |
| CC(=O)Oc1ccc(-n2cc(C(=O)O)c(=O)cc2-c2cc3ccccc3o2)cc1 | 0.78 µg/mL (≈ 2 µM) | 6.25 µg/mL (≈ 16.1 µM) | 0.78 µg/mL (≈ 2 µM) | 6.25 µg/mL (≈ 16.1 µM) | 0.39 µg/mL (≈ 1 µM) | 6.25 µg/mL (≈ 16.1 µM) | 6.25 µg/mL (≈ 16.1 µM) | 0.39 µg/mL (≈ 1 µM) | 12.5 µg/mL (≈ 32.1 µM) | 6.25 µg/mL (≈ 16.1 µM) | 0.39 µg/mL (≈ 1 µM) | 0.2 µg/mL (≈ 0.514 µM) | 1.56 µg/mL (≈ 4.01 µM) | – | 1.56 µg/mL (≈ 4.01 µM) | 3.13 µg/mL (≈ 8.04 µM) | 3.13 µg/mL (≈ 8.04 µM) | 3.13 µg/mL (≈ 8.04 µM) | – | 0.78 µg/mL (≈ 2 µM) | – |
| COc1ccc(-c2ccc(-c3cc(=O)c(C(=O)O)cn3-c3ccc(O)cc3)s2)cc1 | 0.1 µg/mL (≈ 0.238 µM) | 1.56 µg/mL (≈ 3.72 µM) | 0.78 µg/mL (≈ 1.86 µM) | 1.56 µg/mL (≈ 3.72 µM) | 0.2 µg/mL (≈ 0.477 µM) | 3.13 µg/mL (≈ 7.46 µM) | 1.56 µg/mL (≈ 3.72 µM) | 0.1 µg/mL (≈ 0.238 µM) | 3.13 µg/mL (≈ 7.46 µM) | – | 0.1 µg/mL (≈ 0.238 µM) | ≤ 0.05 µg/mL | 0.39 µg/mL (≈ 0.93 µM) | – | 0.39 µg/mL (≈ 0.93 µM) | 0.78 µg/mL (≈ 1.86 µM) | 0.78 µg/mL (≈ 1.86 µM) | 0.78 µg/mL (≈ 1.86 µM) | 6.25 µg/mL (≈ 14.9 µM) | 0.39 µg/mL (≈ 0.93 µM) | – |
| CN(C)c1ccc(-c2cc(=O)c(C(=O)O)cn2-c2ccc(O)cc2F)cc1 | ≤ 0.05 µg/mL | 3.13 µg/mL (≈ 8.5 µM) | 0.2 µg/mL (≈ 0.543 µM) | – | ≤ 0.05 µg/mL | – | – | ≤ 0.05 µg/mL | 0.78 µg/mL (≈ 2.12 µM) | 3.13 µg/mL (≈ 8.5 µM) | ≤ 0.05 µg/mL | ≤ 0.05 µg/mL | 0.2 µg/mL (≈ 0.543 µM) | – | 0.1 µg/mL (≈ 0.271 µM) | 0.2 µg/mL (≈ 0.543 µM) | 0.78 µg/mL (≈ 2.12 µM) | 0.2 µg/mL (≈ 0.543 µM) | – | 0.1 µg/mL (≈ 0.271 µM) | MIC (Pro. mirabilis T-111; [3]): 0.78 µg/mL (≈ 2.12 µM); MIC (Ps. aeruginosa IFO3445; [5]): 1.56 µg/mL (≈ 4.23 µM); MIC (Ps. aeruginosa S-68; [6]): 0.78 µg/mL (≈ 2.12 µM) |
| O=C(O)c1cn(-c2ccc(O)cc2)c(-c2ccc(-c3ccc(O)cc3)s2)cc1=O | ≤ 0.05 µg/mL | 3.13 µg/mL (≈ 7.72 µM) | 0.78 µg/mL (≈ 1.92 µM) | 6.25 µg/mL (≈ 15.4 µM) | 0.39 µg/mL (≈ 0.962 µM) | 3.13 µg/mL (≈ 7.72 µM) | 6.25 µg/mL (≈ 15.4 µM) | 0.1 µg/mL (≈ 0.247 µM) | 6.25 µg/mL (≈ 15.4 µM) | 3.13 µg/mL (≈ 7.72 µM) | 0.2 µg/mL (≈ 0.493 µM) | ≤ 0.05 µg/mL | 0.78 µg/mL (≈ 1.92 µM) | – | 0.39 µg/mL (≈ 0.962 µM) | 1.56 µg/mL (≈ 3.85 µM) | 1.56 µg/mL (≈ 3.85 µM) | 0.78 µg/mL (≈ 1.92 µM) | – | 0.78 µg/mL (≈ 1.92 µM) | – |
